Measured values from ChEMBL document CHEMBL4219093, “New 4-aryl-1,3,2-oxathiazolylium-5-olates: Chemical synthesis and photochemical stability of a novel series of S-nitrosothiols” (Bioorg Med Chem Lett, 2018).

How the values were obtained:
Assay type in all cases: physicochemical
[1] = Drug metabolism assessed as ring opening in EtOH/H2O at 75 mM measured after 40 mins under dark condition by UV-vis spectrophotometric method; settings: for degraded at 40 min: EtOH/H2O, read-out: Drug metabolism; for Drug metabolism: 40 min, 75000 µM
[2] = Photochemical stability of the compound in EtOH/H2O assessed as ring opening by measuring compound decomposition at 75 mM measured in presence of ambient daylight conditions after 40 mins by UV-vis spectrophotometric method; settings: for degraded at 40 min: EtOH/H2O, read-out: Drug degradation
[3] = Photochemical stability of the compound assessed as compound decomposition in phosphate buffer at pH 7.4 exposed to daylight at 0.4 mM measured over 3 hrs by UV-Vis absorbance method; settings: read-out: Drug degradation

| Structure (SMILES) | degraded at 40 min [1] | Drug metabolism [1] | other results |
| --- | --- | --- | --- |
| [O-]c1on[s+]c1-c1cccc(Cl)c1 | 40 to 80% |  |  |
| [O-]c1on[s+]c1-c1ccc(F)cc1 | 40 to 80% |  | degraded at 40 min [2]: 76% |
| [O-]c1on[s+]c1-c1ccccc1Cl |  | Metabolite_Detected |  |
| [O-]c1on[s+]c1-c1ccc(Cl)cc1 |  | Metabolite_Detected | degraded at 40 min [2]: 42% |
| [O-]c1on[s+]c1-c1ccccc1 | 48% |  | degraded at 3 h, 400 µM [3]: 7% |

Continued, in another order:

| degraded at 40 min [1] | Drug metabolism [1] | Structure (SMILES) | other results |
| --- | --- | --- | --- |
|  | Metabolite_Detected | [O-]c1on[s+]c1-c1ccc(F)cc1F | Stability ([2]; 40 min, 75000 µM): Stable |
| 40 to 80% |  | [O-]c1on[s+]c1-c1cc(F)cc(F)c1 |  |
